# Source: patent US6110933A, “Amino acid derivatives and their use as phospholipase A2 inhibitor” (Fujisawa Pharmaceutical Co., Ltd., priority 1994, dated 2000)
# Experiments:
# PLA2 group I = experiment: Test on the inhibitory effect against phospholipase A2 (PLA2); format: biochemical; conditions: 83 ng/ml; PLA2 group I from porcine pancreas; preincubated with enzyme at 37° C. for 30 minutes; 5 μM [14C]phosphatidylcholine, pH 7.4
# Protocol: Test on the inhibitory effect against phospholipase A2 (PLA2)
# The substrate, [^14 C]phosphatidylcholine (L-3-phosphatidylcholine, 1-stearyl-2-[1-^14 C]arachidonyl, was dried under N2 gas and suspended in deionized water with a probe sonicater. The standard reaction mixture in a total volume of 800 μl contained Tris-HCl buffer (10 mM, pH 7.4), CaCl2 (5 mM) and 10 ng/ml enzyme, PLA2 group I (from porcine pancreas, 700 units/mg, Boehringer Mannheim Yamanouchi Co., Ltd.). The reaction was started by addition of 5 μM [^14 C]phosphatidylcholine (L-3-phosphatidylcholine, 1-stearyl-2-[1-^14 C]arachidonyl to the enzyme solution. Following incubation at 37° C. for 30 minutes, the reaction was terminated by addition of 2 ml of Dole's reagent^1). To determine the release of ^14 C-arachidonic acid from the phospholipid substrate, free fatty acid was extracted by the method of Natori et al^2), and counted in 8 ml of Liquifluor (Du Pont, New England Nuclear). On the inhibition assay, inhibitor or vehicle was preincubated with enzyme at 37° C. for 30 minutes. Each sample was dissolved in methanol (1.25% final). All data are the average of at least duplicate determinations corrected for none enzymatic hydrolysis. Data were expressed as percent inhibition.
# PLA2 group II = experiment: Inhibition of PLA2 group II; format: biochemical; conditions: no concentration or figure given
structure (smiles),measurement,setting,value
"CCCCCCCCCCCCC[C@@H](CC(N)=O)OC(=O)[C@H](CCCC(=O)O)NC(=O)c1ccc(OC)cc1 [Example 9, (3S)-3-[(2S)-5-Carboxy-2-(p-methoxybenzoylamino)-pentanoyl]oxyhexadecanamide]",Percent inhibition,PLA2 group I,87.1%
same,inhibition of PLA2 group II,PLA2 group II,inhibited
